From patent US11098032B2, “Pyran dervatives as CYP11A1 (cytochrome P450 monooxygenase 11A1) inhibitors” (ORION CORPORATION, priority 2016, dated 2021)

What follows are compounds tested against T1, CYP11A1 (Homo sapiens, UniProt P05108) (assay: CYP11A1 inhibition: modified isocaproic acid release assay (IARA) in H295R cells). Conditions: human H295R adrenocortical carcinoma cells treated three days, 3 nM [24,25-3H]-labelled cholesterol, 1% DMSO, 10 concentrations in duplicates; read-out: IC50 of the test compounds on CYP11A1 inhibition.
T1 construct: human H295R adrenocortical carcinoma cell line was used as source of enzyme; endogenous in cells; host or cells: H295R human adrenocortical carcinoma cells
T1 sequence (P05108 40-521): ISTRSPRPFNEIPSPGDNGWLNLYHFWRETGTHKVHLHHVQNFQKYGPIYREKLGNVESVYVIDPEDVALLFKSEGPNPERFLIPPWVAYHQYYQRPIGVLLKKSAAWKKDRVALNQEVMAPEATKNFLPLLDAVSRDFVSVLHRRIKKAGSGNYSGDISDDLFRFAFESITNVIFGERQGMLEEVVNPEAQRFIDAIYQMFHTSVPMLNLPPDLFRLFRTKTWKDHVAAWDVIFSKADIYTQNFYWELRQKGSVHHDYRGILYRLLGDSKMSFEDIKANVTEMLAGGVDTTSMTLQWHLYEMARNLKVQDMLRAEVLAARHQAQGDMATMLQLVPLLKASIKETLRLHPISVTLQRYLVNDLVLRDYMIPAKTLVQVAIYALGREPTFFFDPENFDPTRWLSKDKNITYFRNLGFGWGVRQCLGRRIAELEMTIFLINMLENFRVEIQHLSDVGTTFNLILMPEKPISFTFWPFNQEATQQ
Assay type: cell-based
Description: The ability of the test compounds to inhibit conversion of cholesterole to pregnenolone and isocaproic acid was measured by modification of isocaproic acid release assay (IARA) described by Ruangwises et. al. (Biology of Reproduction 1991; 45(1):143-50) except that human H295R adrenocortical carcinoma cell line was used as source of enzyme and extraction was done with dextran-coated charcoal suspension (Isomaa, V. et al., Endocrinology 1982; 111(3):833-843). […] To determine the half maximal inhibitory concentration (IC50) of the test compounds on CYP11A1 inhibition, the cells were treated for three days with increasing concentrations of the test compounds in the presence of 3 nM [24,25-3H]-labelled cholesterol (American Radiolabelled Chemicals). The final DMSO concentration was 1%. Cell culture medium was extracted with dextran-coated charcoal suspension and the radiolabelled isocaproic acid was determined by mixing 100 μl of supernatant fraction in 200 μl of scintillation fluid (OptiPhase SuperMix, Perkin Elmer). Radioactivity was measured using a Microbeta scintillation counter (1450 MicroBeta Trilux, Wallac). All the test compounds were studied at 10 concentrations in duplicates.

IC50	Compound
0.301 to 2 µM	CN(C)C(=O)c1ccc(COc2coc(CN3CCc4ccccc4C3)cc2=O)cc1F [Compound 78, 4-(((6-((3,4-Dihydroisoquinolin-2(1H)-yl)methyl)-4-oxo-4H-pyran-3-yl)oxy)-methyl)-2-fluoro-N,N-dimethylbenzamide]
0.301 to 2 µM	CNC(=O)c1ccc(COc2coc(CN3Cc4ccccc4C3)cc2=O)cc1F [Compound 79, 2-Fluoro-4-(((6-(isoindolin-2-ylmethyl)-4-oxo-4H-pyran-3-yl)oxy)methyl)-N-methylbenzamide]
0.301 to 2 µM	CNC(=O)c1ccc(COc2coc(CN3CCc4ccccc4C3)cc2=O)cc1F [Compound 80, 4-(((6-((3,4-Dihydroisoquinolin-2(1H)-yl)methyl)-4-oxo-4H-pyran-3-yl)oxy)-methyl)-2-fluoro-N-methylbenzamide]
0.15 to 0.3 µM	C[S+]([O-])c1ccc(COc2coc(CN3Cc4ccccc4C3)cc2=O)cc1 (stereo not shown) [Compound 81, 2-(Isoindolin-2-ylmethyl)-5-((4-(methylsulfinyl)benzyl)oxy)-4H-pyran-4-one]
0.15 to 0.3 µM	CSc1ccc(COc2coc(CN3Cc4ccccc4C3)cc2=O)cc1 [Compound 82, 2-(Isoindolin-2-ylmethyl)-5-((4-(methylthio)benzyl)oxy)-4H-pyran-4-one]
0.15 to 0.3 µM	CN(C)C(=O)c1ccc(COc2coc(CN3Cc4cc(F)c(F)cc4C3)cc2=O)cc1 [Compound 82a, 4-(((6-((5,6-Difluoroisoindolin-2-yl)methyl)-4-oxo-4H-pyran-3-yl)oxy)methyl)-N,N-dimethylbenzamide]
< 0.15 µM	CS(C)(=O)=NC(=O)c1ccc(COc2coc(CN3Cc4ccccc4C3)cc2=O)cc1 [Compound 83, 4-({[6-(1,3-Dihydro-2H-isoindol-2-ylmethyl)-4-oxo-4H-pyran-3-yl]oxy}methyl)-N-[dimethyl(oxido)-λ^6-sulfanylidene]benzamide]
< 0.15 µM	CS(C)(=O)=NC(=O)c1ccc(COc2coc(CN3Cc4ccc(F)cc4C3)cc2=O)cc1 [Compound 84, N-[Dimethyl(oxido)-λ^6-sulfanylidene]-4-[({6-[(5-fluoro-1,3-dihydro-2H-iso-indol-2-yl)methyl]-4-oxo-4H-pyran-3-yl}oxy)methyl]benzamide]
0.15 to 0.3 µM	CS(=N)c1ccc(COc2coc(CN3Cc4ccccc4C3)cc2=O)cc1 (stereo not shown) [Compound 85, 2-(Isoindolin-2-ylmethyl)-5-((4-(S-methylsulfinimidoyl)benzyl)oxy)-4H-pyran-4-one]

Second part, the compound before the results:

Compound	IC50
COC(=O)c1ccc(COc2coc(CN3Cc4ccccc4C3)cc2=O)cc1 [Compound 60, Methyl 4-(((6-(isoindolin-2-ylmethyl)-4-oxo-4H-pyran-3-yl)oxy)methyl)benzoate]	0.301 to 2 µM
CN(C)C(=O)c1ccc(COc2coc(CN3Cc4ccccc4C3)cc2=O)c(F)c1 [Compound 61, 3-Fluoro-4-(((6-(isoindolin-2-ylmethyl)-4-oxo-4H-pyran-3-yl)oxy)methyl)-N,N-dimethylbenzamide]	0.15 to 0.3 µM
CNC(=O)c1ccc(COc2coc(CN3Cc4ccccc4C3)cc2=O)cc1 [Compound 62, 4-(((6-(Isoindolin-2-ylmethyl)-4-oxo-4H-pyran-3-yl)oxy)methyl)-N-methylbenzamide]	0.301 to 2 µM
CS(=O)(=O)c1ccc(COc2coc(CN3Cc4ccc(F)cc4C3)cc2=O)cc1 [Compound 63, 2-((5-Fluoroisoindolin-2-yl)methyl)-5-((4-(methylsulfonyl)benzyl)oxy)-4H-pyran-4-one]	0.15 to 0.3 µM
CS(=O)(=O)c1ccc(COc2coc(CN3Cc4ccc(Cl)cc4C3)cc2=O)cc1 [Compound 64, 2-((5-Chloroisoindolin-2-yl)methyl)-5-((4-(methylsulfonyl)benzyl)oxy)-4H-pyran-4-one]	0.15 to 0.3 µM
O=c1cc(CN2Cc3ccccc3C2)occ1OCC1CCCCC1 [Compound 65, 5-(Cyclohexylmethoxy)-2-(isoindolin-2-ylmethyl)-4H-pyran-4-one]	< 0.15 µM
CS(=O)(=O)c1ccc(COc2coc(CN3Cc4cc5c(cc4C3)OCO5)cc2=O)cc1 [Compound 66, 2-((5,7-Dihydro-6H-[1,3]dioxolo[4,5-f]isoindol-6-yl)methyl)-5-((4-(methyl-sulfonyl)benzyl)oxy)-4H-pyran-4-one]	0.301 to 2 µM
O=c1cc(CN2Cc3ccccc3C2)occ1OCC1CCOCC1 [Compound 67, 2-(Isoindolin-2-ylmethyl)-5-((tetrahydro-2H-pyran-4-yl)methoxy)-4H-pyran-4-one]	0.15 to 0.3 µM
CS(=O)(=O)c1ccc(COc2coc(CN3Cc4ccc([N+](=O)[O-])cc4C3)cc2=O)cc1 [Compound 68, 5-((4-(Methylsulfonyl)benzyl)oxy)-2-((5-nitroisoindolin-2-yl)methyl)-4H-pyran-4-one]	0.15 to 0.3 µM
CC(=O)NC(C)(C)c1ccc(COc2coc(CN3Cc4ccccc4C3)cc2=O)cc1 [Compound 69, N-(2-(4-(((6-(Isoindolin-2-ylmethyl)-4-oxo-4H-pyran-3-yl)oxy)methyl)phenyl)-propan-2-yl)acetamide]	0.15 to 0.3 µM
O=c1cc(CN2Cc3ccc(C(F)(F)F)cc3C2)occ1OCC1CCN(S(=O)(=O)C2COC2)CC1 [Compound 69a, 5-((1-(Oxetan-3-ylsulfonyl)piperidin-4-yl)methoxy)-2-((5-(trifluoromethyl)-isoindolin-2-yl)methyl)-4H-pyran-4-one]	< 0.15 µM
CC(=O)N(C)S(=O)(=O)c1ccc(COc2coc(CN3Cc4ccccc4C3)cc2=O)cc1 [Compound 70, N-((4-(((6-(Isoindolin-2-ylmethyl)-4-oxo-4H-pyran-3-yl)oxy)methyl)phenyl)-sulfonyl)-N-methylacetamide]	< 0.15 µM
N=S(=O)(c1ccc(COc2coc(CN3Cc4ccccc4C3)cc2=O)cc1)C1CCC1 (stereo not shown) [Compound 71, 5-((4-(Cyclobutanesulfonimidoyl)benzyl)oxy)-2-(isoindolin-2-ylmethyl)-4H-pyran-4-one]	< 0.15 µM
O=c1cc(CN2Cc3ccccc3C2)occ1OCc1ccc(S(=O)(=O)C2CC2)cc1 [Compound 72, 5-((4-(Cyclopropylsulfonyl)benzyl)oxy)-2-(isoindolin-2-ylmethyl)-4H-pyran-4-one]	< 0.15 µM
CC(C)CS(=O)(=O)c1ccc(COc2coc(CN3Cc4ccccc4C3)cc2=O)cc1 [Compound 73, 5-((4-(Isobutylsulfonyl)benzyl)oxy)-2-(isoindolin-2-ylmethyl)-4H-pyran-4-one]	< 0.15 µM
CS(=N)c1ccc(COc2coc(CN3Cc4ccc(C(F)(F)F)cc4C3)cc2=O)cc1 (stereo not shown) [Compound 74, 5-((4-(S-methylsulfinimidoyl)benzyl)oxy)-2-((5-(trifluoromethyl)isoindolin-2-yl)methyl)-4H-pyran-4-one]	< 0.15 µM
O=c1cc(CN2Cc3ccccc3C2)occ1OCc1ccc(C(F)(F)F)nc1 [Compound 75, 2-(Isoindolin-2-ylmethyl)-5-((6-(trifluoromethyl)pyridin-3-yl)methoxy)-4H-pyran-4-one]	0.301 to 2 µM
COc1ccc(COc2coc(CN3Cc4ccccc4C3)cc2=O)cn1 [Compound 76, 2-(Isoindolin-2-ylmethyl)-5-((6-methoxypyridin-3-yl)methoxy)-4H-pyran-4-one]	0.301 to 2 µM
CC1c2ccccc2CN1Cc1cc(=O)c(OCc2ccc(C(=O)N(C)C)cc2)co1 (stereo not shown) [Compound 77, N,N-Dimethyl-4-(((6-((1-methylisoindolin-2-yl)methyl)-4-oxo-4H-pyran-3-yl)oxy)methyl)benzamide]	0.301 to 2 µM
